# From PubChem BioAssay (NCI)
# Several values for one entry are separate records, joined by “and”; a condition that tells them apart may be missing. Equal values may be shown once.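 Dose response: 5 concentrations. Exposure: 48 h. Format: 96-well plates. Endpoint: linear interpolation; highest concentration if not reached. GI50 = concentration required for 50% inhibition of growth. TGI is the concentration that stops growth completely.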
# Tests used:
# Test in all cases: NCI tumour cell line growth inhibition, 48 h
# 786-0 renal = tested on: 786-0 renal
# A498 renal = tested on: A498 renal
# A549 NSCLC = tested on: A549 NSCLC
# ACHN renal = tested on: ACHN renal
# BT-549 breast = tested on: BT-549 breast
# CAKI-1 renal = tested on: CAKI-1 renal
# CCRF-CEM leukemia = tested on: CCRF-CEM leukemia
# COLO 205 colon = tested on: COLO 205 colon
# DU-145 prostate = tested on: DU-145 prostate
# EKVX NSCLC = tested on: EKVX NSCLC
# HCC-2998 colon = tested on: HCC-2998 colon
# HCT-116 colon = tested on: HCT-116 colon
# HCT-15 colon = tested on: HCT-15 colon
# HL-60(TB) leukemia = tested on: HL-60(TB) leukemia
# HOP-62 NSCLC = tested on: HOP-62 NSCLC
# HOP-92 NSCLC = tested on: HOP-92 NSCLC
# HS 578T breast = tested on: HS 578T breast
# HT29 colon = tested on: HT29 colon
# IGROV1 ovarian = tested on: IGROV1 ovarian
# K-562 leukemia = tested on: K-562 leukemia
# KM12 colon = tested on: KM12 colon
# LOX IMVI melanoma = tested on: LOX IMVI melanoma
# M14 melanoma = tested on: M14 melanoma
# MALME-3M melanoma = tested on: MALME-3M melanoma
# MCF7 breast = tested on: MCF7 breast
# MDA-MB-231 breast = tested on: MDA-MB-231 breast
# MDA-MB-435 = tested on: MDA-MB-435
# MOLT-4 leukemia = tested on: MOLT-4 leukemia
# NCI-H226 lung = tested on: NCI-H226 lung
smiles,measurement,setting,value
C[C@@]1(C(=O)Nc2ccc(F)nc2)CCCN1c1nc(Nc2cc(C3CC3)[nH]n2)c2cccn2n1,GI50,786-0 renal,855 nM and 2780 nM
same,TGI,786-0 renal,> 4290 nM and 17700 nM
same,GI50,A498 renal,194 nM and 927 nM
same,TGI,A498 renal,896 nM and 3990 nM
same,GI50,A549 NSCLC,259 nM and 384 nM
same,TGI,A549 NSCLC,> 10000 nM and 22900 nM
same,GI50,ACHN renal,849 nM and 3360 nM
same,TGI,ACHN renal,> 3470 nM and 26100 nM
same,GI50,BT-549 breast,832 nM and 3060 nM
same,TGI,BT-549 breast,> 2460 nM and 14200 nM
same,GI50,CAKI-1 renal,565 nM and 725 nM
same,TGI,CAKI-1 renal,> 2290 nM and 7000 nM
same,GI50,CCRF-CEM leukemia,378 nM and 574 nM
same,TGI,CCRF-CEM leukemia,> 100000 nM
same,GI50,COLO 205 colon,9.29 nM and 50.1 nM
same,TGI,COLO 205 colon,236 nM and 321 nM
same,GI50,DU-145 prostate,1030 nM and 2570 nM
same,TGI,DU-145 prostate,> 4000 nM and 16400 nM
same,GI50,EKVX NSCLC,417 nM and 1210 nM
same,TGI,EKVX NSCLC,> 4230 nM and 17100 nM
same,GI50,HCC-2998 colon,1060 nM and 6270 nM
same,TGI,HCC-2998 colon,> 4700 nM and 22700 nM
same,GI50,HCT-116 colon,314 nM and 575 nM
same,TGI,HCT-116 colon,> 2330 nM and 15900 nM
same,GI50,HCT-15 colon,826 nM and 2120 nM
same,TGI,HCT-15 colon,> 4910 nM and 36100 nM
same,GI50,HL-60(TB) leukemia,9.05 nM
same,TGI,HL-60(TB) leukemia,> 2060 nM
same,GI50,HOP-62 NSCLC,404 nM and 1710 nM
same,TGI,HOP-62 NSCLC,> 5170 nM and 15400 nM
same,GI50,HOP-92 NSCLC,11.9 nM and < 10 nM
same,TGI,HOP-92 NSCLC,672 nM and 200 nM
same,GI50,HS 578T breast,631 nM and 2560 nM
same,TGI,HS 578T breast,3190 nM and 8610 nM
same,GI50,HT29 colon,4.43 nM and 10.3 nM
same,TGI,HT29 colon,> 10000 nM and 1840 nM
same,GI50,IGROV1 ovarian,514 nM and 1710 nM
same,TGI,IGROV1 ovarian,> 3870 nM and 16500 nM
same,TGI,K-562 leukemia,> 10000 nM and 56600 nM
same,GI50,KM12 colon,53.3 nM and 125 nM
same,TGI,KM12 colon,467 nM and 817 nM
same,GI50,LOX IMVI melanoma,346 nM and 1100 nM
same,TGI,LOX IMVI melanoma,> 2040 nM and 12200 nM
same,GI50,M14 melanoma,624 nM and 2500 nM
same,TGI,M14 melanoma,> 2850 nM and 20500 nM
same,GI50,MALME-3M melanoma,11700 nM
same,TGI,MALME-3M melanoma,> 4480 nM and 29400 nM
same,GI50,MCF7 breast,44.5 nM and 30.5 nM
same,TGI,MCF7 breast,> 2690 nM and 15200 nM
same,GI50,MDA-MB-231 breast,786 nM and 3110 nM
same,TGI,MDA-MB-231 breast,> 10000 nM and 15100 nM
same,TGI,MDA-MB-435,> 5420 nM and 23600 nM
same,GI50,MOLT-4 leukemia,7880 nM
same,TGI,MOLT-4 leukemia,> 3390 nM and 58700 nM
same,GI50,NCI-H226 lung,248 nM and 651 nM
same,TGI,NCI-H226 lung,1900 nM and 7910 nM
